Patent publication US5726325A, “Tricyclic compounds” (Kyowa Hakko Kogyo Co., Ltd., priority 1995, dated 1998)

Key:
detrusor muscle [1] = experiment: Test Example 2: relaxation of guinea pig bladder strips, rhythmical contraction induced by 15 mM KCl; format: cell-based, guinea pig (male albino Hartley); conditions: Cavia porcellus, concentration decreasing detrusor contraction by 50%
Description: (§1) The activity of Compound (I) as a smooth muscle relaxant which is useful as a therapeutic agent for urinary incontinence can be observed, for example, using the following tests. In the following Test Examples 1 and 2, "IC50 " means the concentration of a test compound which induces the decrease in the contraction of detrusor muscle by 50%.
(§2) Male albino Hartley guinea pigs (350-550 g) were used as test animals. Each animal was exsanguinated to death under pentobarbital sodium anesthesia. The lower abdominal cavity was opened and its bladder was positioned. The connective tissue and the fat tissue around the bladder were removed, and the bladder was cleaned. After two pelvic nerves on the surface of the abdominal side of the bladder were dissected, the bladder was taken out on the entrance of ureter. The bladder was washed with a Krebs-Henseleit buffer [composition (mM): NaCl 118, KCl 4.7, MgSO4 1.2, KH2 PO4 1.2, CaCl2 2.5, NaHCO3 25, and D-glucose 11.1], and then put on a gauze patch soaked in the buffer in a Petri dish. The dome and the trigone of the bladder were dissected and discarded. The back of the bladder was cut vertically in the middle with scissors, and the bladder was put flat on the gauze patch. The dome tip and the side of the trigone of the bladder were dissected and discarded, and the mucosa of the bladder was removed. The back of the bladder was cut vertically to get 6 strips which are ca. 2.0 mm wide and ca. 10 mm long.
(§3) One end of each strip was fixed on a plastic supporter rod, and the other end was fixed on a clip connected to a suture thread. The supporter was fixed in 20 ml of an organ bath and the suture thread connected to the clip was fixed on a force-displacement transducer (NIHON KODEN TB-611T). The tissue was suspended in a Krebs-Henseleit buffer, and the bath solution was warmed to 37° C. and bubbled with a gas mixture of 5% CO2 and 95% O2. The pH of the solution was adjusted to about 7.4. The transducer was connected to a polygraph (NIHON KODEN AP-621G), and the change of tension was recorded on a recorder (YOKOGAWA type 3066). The polygraph was graduated by 0.5 g/cm.
The effect of a smooth muscle relaxant varies with the concentration of KCl based on the difference of an action mechanism. In the following Test Example, KCl was used at a concentration different from that in Test Example 1.
A sample of the excised bladder was prepared in the same manner as in Test Example 1, and the tension of the preparation was measured. After the tension of the tissue was adjusted to be a steady state at 1 g, 15 mM KCl was applied. After the rhythmical contraction was confirmed to appear by KCl, the tissue was washed. Then, 15 mM KCl was applied again. After the rhythmical contraction took place constantly and the tissue reached the steady state, a test compound was applied by the cumulative method (half-logarithmic incremence). The contact time at each concentration was 30 minutes. The activity of the compound was expressed as the maximum relaxation rate (%) of the tension induced by the agonist.

bladder [2] = experiment: Test Example 3: vesical contraction interval in anesthetized rats, intravenous; format: in vivo, rat (female SD strain); conditions: 1 mg/kg i.v., average over 20 minutes, relative to pre-administration value
Description: Female SD strain rats (120-180 g) were used as test animals. Each animal was anesthetized by subcutaneous administration of 1 g/kg urethane. A catheter was inserted into the trachea to secure respiration. A polyethylene cannula (PE50) was inserted into the bladder from the entrance of the urethra and the urethra was ligated at the base. A catheter for blood pressure measurement was inserted into the right carotid artery, and a cannula for drug administration was inserted into the right jugular vein. The arterial catheter and the vesical catheter were connected to pressure transducers to measure the blood pressure and the intravesical pressure. After the bladder was stabilized over about 15 minutes, physiological saline was injected into the bladder at a volume of 0.2-0.7 ml to induce the rhythmical contraction almost once a minute. […]
By this examination method, the effect of the test compounds on both blood pressure and vesical contraction can be evaluated. The blood pressure was measured 5, 15, and 30 minutes after the test compound was injected into the vein. […] The change of average contraction interval (time between contractions) over 20 minutes was expressed as the relative value based on the pre-administration value which was regarded as 100.

[3] = Test Example 3: arterial blood pressure in anesthetized rats, intravenous; format: in vivo, rat (female SD strain); conditions: 1 mg/kg i.v.
Description: Female SD strain rats (120-180 g) were used as test animals. Each animal was anesthetized by subcutaneous administration of 1 g/kg urethane. A catheter was inserted into the trachea to secure respiration. A polyethylene cannula (PE50) was inserted into the bladder from the entrance of the urethra and the urethra was ligated at the base. A catheter for blood pressure measurement was inserted into the right carotid artery, and a cannula for drug administration was inserted into the right jugular vein. The arterial catheter and the vesical catheter were connected to pressure transducers to measure the blood pressure and the intravesical pressure. After the bladder was stabilized over about 15 minutes, physiological saline was injected into the bladder at a volume of 0.2-0.7 ml to induce the rhythmical contraction almost once a minute. After the contraction of the bladder started, the contraction pattern was stabilized for 30-45 minutes, followed by intravenous administration of a test compound.
By this examination method, the effect of the test compounds on both blood pressure and vesical contraction can be evaluated. The blood pressure was measured 5, 15, and 30 minutes after the test compound was injected into the vein. Micturition contraction was induced by injecting physiological saline into the bladder. The change of average contraction interval (time between contractions) over 20 minutes was expressed as the relative value based on the pre-administration value which was regarded as 100.

detrusor muscle [4] = experiment: Test Example 1: relaxation of guinea pig bladder strips contracted with 50 mM KCl; format: cell-based, guinea pig (male albino Hartley); conditions: Cavia porcellus; contraction induced by 50 mM KCl; concentration decreasing detrusor contraction by 50%
Description: as §1, §2, §3
After the tissue was incubated in the buffer for 15 minutes without preloading, tension was added thereto for about one hour. The preloading tension added was 1.5 g and it was relaxed to about 1 g. The tissue was washed at intervals of 15 minutes and the tension was adjusted to 1.5 g just before washing. The tension of the tissue was adjusted to be a steady state at 1 g. After this equilibrium time, 50 mM KCl (the whole content in the bath) was added, and the tissue was washed 10 minutes later. KCl was added to the tissue at intervals of 30 minutes, followed by washing 10 minutes later, and KCl was applied repeatedly until the developed tension induced by KCl becomes constant. When the tissue was confirmed to contract constantly by the application of KCl and relax to the steady state after washing, 50 mM KCl was applied again. After the tissue reached the steady state and the base line was obtained, a test compound was applied by the cumulative method (half-logarithmic incremence). The contact time at each concentration was 30 minutes. The activity of the compound was expressed as the maximum relaxation rate (%) of the tension induced by the agonist.

bladder [5] = experiment: Test Example 4: micturition contraction interval in rats under partial restraint, oral; format: in vivo, rat (male SD strain); conditions: Rattus norvegicus, pre-administration = 100; for response vs control in vivo at 3 mg/kg: 3 mg/kg oral; for response vs control in vivo at 1 mg/kg: 1.0 mg/kg oral, second part of Table 4
Description: As a control compound, cromakalim was used.

| SMILES | IC50 (detrusor muscle [1]) [µM] | Change of contraction interval (bladder [2]) | Change of average arterial blood pressure ([3]; 5 min) | Change of average arterial blood pressure ([3]; 15 min) | Change of average arterial blood pressure ([3]; 30 min) | IC50 (detrusor muscle [4]) [µM] | response vs control in vivo at 3 mg/kg (bladder [5]; 1 hr) [%] | response vs control in vivo at 3 mg/kg (bladder [5]; 2 hr) [%] | response vs control in vivo at 3 mg/kg (bladder [5]; 3 hr) [%] | response vs control in vivo at 3 mg/kg (bladder [5]; 4 hr) [%] | response vs control in vivo at 3 mg/kg (bladder [5]; 5 hr) [%] | response vs control in vivo at 1 mg/kg (bladder [5]; 1 hr after administration) [%] | response vs control in vivo at 1 mg/kg (bladder [5]; 2 hr after administration) [%] | response vs control in vivo at 1 mg/kg (bladder [5]; 3 hr after administration) [%] | response vs control in vivo at 1 mg/kg (bladder [5]; 4 hr after administration) [%] | response vs control in vivo at 1 mg/kg (bladder [5]; 5 hr after administration) [%] |
| --- | --- | --- | --- | --- | --- | --- | --- | --- | --- | --- | --- | --- | --- | --- | --- | --- |
| CC(O)(C(=O)Nc1cccc2c1C(=O)c1ccccc1CO2)C(F)(F)F (stereo not shown) [Compound 1, 1-(3,3,3-Trifluoro-2-hydroxy-2-methylpropanoylamino)-6,11-dihydrodibenz[b,e]oxepin-11-one] | 2.4 | +150% | +5% | +5% | +5% | 1.7 | 136 | 148 | 134 | 122 | 117 |  |  |  |  |  |
| CC(O)(C(=O)Nc1cccc2c1C(=O)c1sccc1CO2)C(F)(F)F (stereo not shown) [Compound 7, 9-(3,3,3-Trifluoro-2-hydroxy-2-methylpropanoylamino)-4,10-dihydrothieno[3,2-c][1]benzoxepin-10-one] | 2.1 | +186% | -4% | +1% | +4% | 2.4 | 132 | 141 | 149 | 154 | 146 |  |  |  |  |  |
| C[C@](O)(C(=O)Nc1ccc2c(c1)OCc1occc1C2=O)C(F)(F)F [Compound 37, (S)-7-(3,3,3-Trifluoro-2-hydroxy-2-methylpropanoylamino)-4,10-dihydrofuro[2,3-c][1]benzoxepin-4-one] | 0.2 |  |  |  |  | 4.3 |  |  |  |  |  | 114 ± 10.7 | 128 ± 6.5 | 126 ± 6.5 | 140 ± 10.2 | 144 ± 11.1 |
| CC(O)(C(=O)Nc1cccc2c1C(=O)c1ccoc1CO2)C(F)(F)F (stereo not shown) [Compound 9, 5-(3,3,3-Trifluoro-2-hydroxy-2-methylpropanoylamino)-4,10-dihydrofuro[2,3-c][1]benzoxepin-4-one] | 4.6 |  |  |  |  | 4.3 |  |  |  |  |  | 123 ± 6.8 | 131 ± 9.3 | 133 ± 9.1 | 145 ± 10 | 155 ± 12.2 |
| C[C@](O)(C(=O)Nc1cccc2c1C(=O)c1ccoc1CO2)C(F)(F)F [Compound 35, (S)-5-(3,3,3-Trifluoro-2-hydroxy-2-methylpropanoylamino)-4,10-dihydrofuro[2,3-c][1]benzoxepin-4-one] | 1 |  |  |  |  | 31 |  |  |  |  |  | 123 ± 8.8 | 124 ± 5.7 | 131 ± 9.8 | 138 ± 11 | 144 ± 8.9 |
| CC(O)(C(=O)Nc1ccc2c(c1)OCc1ccsc1C2=O)C(F)(F)F (stereo not shown) [Compound 8, 7-(3,3,3-Trifluoro-2-hydroxy-2-methylpropanoylamino)-4,10-dihydrothieno[3,2-c][1]benzoxepin-10-one] | 0.5 |  |  |  |  | 5.2 |  |  |  |  |  | 130 ± 9.3 | 142 ± 12.6 | 144 ± 8.8 | 162 ± 14.6 | 189 ± 19.6 |
| CC(O)(C(=O)Nc1ccc2c(c1)OCc1occc1C2=O)C(F)(F)F (stereo not shown) [Compound 10, 7-(3,3,3-Trifluoro-2-hydroxy-2-methylpropanoylamino)-4,10-dihydrofuro[2,3-c][1]benzoxepin-4-one] | 1.9 |  |  |  |  | 10 |  |  |  |  |  | 132 ± 11.2 | 142 ± 17.5 | 158 ± 22.3 | 174 ± 29.9 | 183 ± 42.7 |
| CC(O)(C(=O)Nc1cccc2c1C(=O)c1occc1CO2)C(F)(F)F (stereo not shown) [Compound 15, 9-(3,3,3-Trifluoro-2-hydroxy-2-methylpropanoylamino)-4,10-dihydrofuro[3,2-c][1]benzoxepin-10-one] | 9.4 |  |  |  |  | 7.1 |  |  |  |  |  | 130 ± 9.5 | 128 ± 5.3 | 107 ± 16.5 | 121 ± 11.4 | 135 ± 12.6 |
